Where two headings read alike, the source gives them in different places.
What was measured:
F508del = target: T1, F508del (Homo sapiens, UniProt P13569, DEL508-508); assay: 3T3 assay: membrane potential optical assay for F508del correction; type: cell-based; conditions: F508del NIH 3T3 cells; for Emax: NIH3T3, compared to lumacaftor in combination with acutely added 300 nM Ivacaftor, read-out: 3T3 Max Activity; for EC50: 18-24 hours at 37° C., forskolin, acutely added 300 nM Ivacaftor
T1 construct: expressed in transfected cells
Source text: 1. Membrane Potential Optical Methods for Assaying F508del Modulation Properties of Compounds
The assay utilizes fluorescent voltage sensing dyes to measure changes in membrane potential using a fluorescent plate reader (e.g., FLIPR III, Molecular Devices, Inc.) as a readout for increase in functional F508del in NIH 3T3 cells. The driving force for the response is the creation of a chloride ion gradient in conjunction with channel activation by a single liquid addition step after the cells have previously been treated with compounds and subsequently loaded with a voltage sensing dye.
2. Identification of Corrector Compounds
To identify correctors of F508del, a single-addition HTS assay format was developed. This HTS assay utilizes fluorescent voltage sensing dyes to measure changes in membrane potential on the FLIPR III as a measurement for increase in gating (conductance) of F508del in F508del NIH 3T3 cells. The F508del NIH 3T3 cell cultures were incubated with the corrector compounds at a range of concentrations for 18-24 hours at 37° C., and subsequently loaded with a redistribution dye. The driving force for the response is a Cl^− ion gradient in conjunction with channel activation with forskolin in a single liquid addition step using a fluorescent plate reader such as FLIPR III.
Bath Solution #1: (in mM) NaCl 160, KCl 4.5, CaCl2) 2, MgCl2 1, HEPES 10, pH 7.4 with NaOH.
Chloride-free bath solution: Chloride salts in Bath Solution #1 (above) are substituted with gluconate salts.
NIH3T3 mouse fibroblasts stably expressing F508del are used for optical measurements of membrane potential. The cells are maintained at 37° C. in 5% CO2 and 90% humidity in Dulbecco's modified Eagle's medium supplemented with 2 mM glutamine, 10% fetal bovine serum, 1× NEAA, b-ME, 1×pen/strep, and 25 mM HEPES in 175 cm^2 culture flasks. For all optical assays, the cells were seeded at ˜20,000/well in 384-well Matrigel-coated plates. For the correction assays, the cells are cultured at 37° C. with and without compounds for 16-24 hours.

CFTR = CFTR (Homo sapiens, UniProt P13569); assay: Membrane potential dye, Enteroid Assay A; type: cell-based; conditions: for Ent. A Max Activity: chloride transport as % of triple combination control (Enteroid Assay A); for EC50: human enteroid cells, 18-24 hours, acute 10 μM forskolin and 300 nM ivacaftor, read-out: Ent. A EC50
Summary of the method: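 Human intestinal enteroids incubated 18-24 h at 37 °C with test compound, then loaded with 20 μM methyl oxonol (with CaCC inhibitors). Chloride transport triggered in chloride-free buffer with 10 μM forskolin, 100 μM IBMX, 300 nM Compound III; fluorescence read 15 min, expressed as % of a triple-combination corrector/potentiator control.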

T1 sequence (P13569 with tags, fused parts or gaps DEL508-508): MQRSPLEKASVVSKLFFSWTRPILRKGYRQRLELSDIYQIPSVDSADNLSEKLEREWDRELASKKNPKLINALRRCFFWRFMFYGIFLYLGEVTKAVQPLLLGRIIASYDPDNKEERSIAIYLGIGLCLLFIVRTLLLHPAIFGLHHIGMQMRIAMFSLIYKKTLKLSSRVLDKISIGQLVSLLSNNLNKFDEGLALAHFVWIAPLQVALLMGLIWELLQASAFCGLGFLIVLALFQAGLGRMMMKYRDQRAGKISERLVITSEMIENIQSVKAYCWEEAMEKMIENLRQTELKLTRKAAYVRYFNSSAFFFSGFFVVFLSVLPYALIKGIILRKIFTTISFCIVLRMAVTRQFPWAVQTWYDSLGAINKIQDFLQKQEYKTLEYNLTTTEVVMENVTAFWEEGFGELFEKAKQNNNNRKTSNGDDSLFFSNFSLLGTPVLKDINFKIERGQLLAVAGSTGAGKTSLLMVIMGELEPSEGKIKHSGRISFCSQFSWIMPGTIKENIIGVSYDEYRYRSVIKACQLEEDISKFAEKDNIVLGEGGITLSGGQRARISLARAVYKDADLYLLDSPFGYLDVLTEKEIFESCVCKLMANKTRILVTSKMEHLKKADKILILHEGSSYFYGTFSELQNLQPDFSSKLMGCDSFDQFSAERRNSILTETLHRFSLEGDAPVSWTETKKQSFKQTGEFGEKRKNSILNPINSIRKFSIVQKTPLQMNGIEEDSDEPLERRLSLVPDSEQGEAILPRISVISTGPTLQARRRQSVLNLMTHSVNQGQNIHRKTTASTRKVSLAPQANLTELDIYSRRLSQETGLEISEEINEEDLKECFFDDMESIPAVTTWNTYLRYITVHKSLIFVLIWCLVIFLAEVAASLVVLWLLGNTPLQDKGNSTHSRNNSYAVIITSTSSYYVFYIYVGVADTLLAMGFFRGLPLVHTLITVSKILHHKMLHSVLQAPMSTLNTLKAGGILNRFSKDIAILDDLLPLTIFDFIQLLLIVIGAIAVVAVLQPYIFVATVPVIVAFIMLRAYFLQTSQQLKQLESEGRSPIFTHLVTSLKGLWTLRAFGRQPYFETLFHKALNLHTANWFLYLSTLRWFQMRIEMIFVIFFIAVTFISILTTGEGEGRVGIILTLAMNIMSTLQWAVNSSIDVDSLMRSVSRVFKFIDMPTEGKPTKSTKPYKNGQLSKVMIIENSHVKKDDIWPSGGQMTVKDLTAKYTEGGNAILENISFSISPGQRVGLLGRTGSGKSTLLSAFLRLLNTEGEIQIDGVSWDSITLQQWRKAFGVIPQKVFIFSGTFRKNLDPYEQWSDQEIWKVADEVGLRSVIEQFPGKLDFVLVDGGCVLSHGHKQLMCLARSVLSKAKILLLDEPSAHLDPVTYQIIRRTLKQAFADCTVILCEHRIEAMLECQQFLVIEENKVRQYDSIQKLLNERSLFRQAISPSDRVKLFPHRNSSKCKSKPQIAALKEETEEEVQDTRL
Chain of CFTR (P13569 with tags, fused parts or gaps DEL508-508): as above

In the case of `Cc1cccc(C)c1-c1cc2nc(n1)NS(=O)(=O)c1cccc(c1)C(=O)N(C)C[C@H](c1ccc(C(C)(C)C)cc1)O2` (single isomer, unassigned) [Compound 11, 10-(4-tert-Butylphenyl)-6-(2,6-dimethylphenyl)-12-methyl-2,2-dioxo-9-oxa-2λ^6-thia-3,5,12,19-tetrazatricyclo[12.3.1.14,8]nonadeca-1(18),4(19),5,7,14,16-hexaen-13-one], the Emax (F508del; Table 7) is reported as greater than 60%, the EC50 (F508del; Table 7) is reported as less than 1 µM and the “Ent. A Max Activity” value (CFTR; Table 7) is reported as “+++ (+++ is >60%)”. For the same molecule, the EC50 (CFTR; Table 7) was less than 1 µM.
`Cc1cccc(C)c1-c1cc2nc(n1)NS(=O)(=O)c1cccc(c1)C(=O)N(CCC1CCOCC1)[C@H](CCC1(C(F)(F)F)CC1)CO2` (single isomer, unassigned) [Compound 72, 6-(2,6-Dimethylphenyl)-2,2-dioxo-12-(2-tetrahydropyran-4-ylethyl)-11-[2-[1-(trifluoromethyl)cyclopropyl]ethyl]-9-oxa-2λ^6-thia-3,5,12,19-tetrazatricyclo[12.3.1.14,8]nonadeca-1(18),4(19),5,7,14,16-hexaen-13-one] was tested, and the Emax (F508del; Table 6) was greater than 60%, the EC50 (F508del; Table 6) was less than 1 µM and the “Ent. A Max Activity” value (CFTR; Table 6) was “+++ (+++ is >60%)”. The EC50 (CFTR; Table 6) was less than 1 µM.
With `Cc1cccc(C)c1-c1cc2nc(n1)NS(=O)(=O)c1cccc(c1)C(=O)N(C)C[C@@H](c1ccc(C(C)(C)C)cn1)O2` (single isomer, unassigned) [Compound 102, 10-(5-tert-butyl-2-pyridyl)-6-(2,6-dimethylphenyl)-12-methyl-2,2-dioxo-9-oxa-2λ^6-thia-3,5,12,19-tetrazatricyclo[12.3.1.14,8]nonadeca-1(18),4(19),5,7,14,16-hexaen-13-one] the Emax (F508del; Table 7) was greater than 60%, the EC50 (F508del; Table 7) was less than 1 µM and the “Ent. A Max Activity” value (CFTR; Table 7) was “+ (+ is <30%)”. It also gave an EC50 (CFTR; Table 7) of 1 to 3 µM.
`Cc1cccc(C)c1-c1cc2nc(n1)NS(=O)(=O)c1cccc(c1)C(=O)N(C)C[C@H](c1ccc(C(C)(C)C)cn1)O2` (single isomer, unassigned) [Compound 103, 10-(5-tert-butyl-2-pyridyl)-6-(2,6-dimethylphenyl)-12-methyl-2,2-dioxo-9-oxa-2λ^6-thia-3,5,12,19-tetrazatricyclo[12.3.1.14,8]nonadeca-1(18),4(19),5,7,14,16-hexaen-13-one] was tested, and the Emax (F508del; Table 7) was greater than 60%, the EC50 (F508del; Table 7) was less than 1 µM and the “Ent. A Max Activity” value (CFTR; Table 7) was “+++ (+++ is >60%)”. The EC50 (CFTR; Table 7) was less than 1 µM.
`Cc1cccc(C)c1-c1cc2nc(n1)NS(=O)(=O)c1cccc(c1)C(=O)N(C)[C@H](CC(C)C)C(c1ccc(C(C)(C)C)cn1)O2` (stereo in doubt) [Compound 1, (10S,11R)-10-(5-tert-butyl-2-pyridyl)-6-(2,6-dimethylphenyl)-11-isobutyl-12-methyl-2,2-dioxo-9-oxa-2λ^6-thia-3,5,12,19-tetrazatricyclo[12.3.1.14,8]nonadeca-1(18),4(19),5,7,14,16-hexaen-13-one] was tested, and the Emax (F508del; Table 6) was greater than 60%, the EC50 (F508del; Table 6) was less than 1 µM and the “Ent. A Max Activity” value (CFTR; Table 6) was “+++ (+++ is >60%)”. For the same molecule, the EC50 (CFTR; Table 6) was less than 1 µM.
For `Cc1cccc(C)c1-c1cc2nc(n1)NS(=O)(=O)c1cccc(c1)C(=O)N(Cc1ccccc1)CC(c1ccccc1)O2` (stereo in doubt) [Compound 18, (10R)-12-Benzyl-6-(2,6-dimethylphenyl)-2,2-dioxo-10-phenyl-9-oxa-2λ^6-thia-3,5,12,19-tetrazatricyclo[12.3.1.14,8]nonadeca-1(18),4(19),5,7,14,16-hexaen-13-one], the Emax (F508del; Table 6) was greater than 60%, the EC50 (F508del; Table 6) was less than 1 µM and the “Ent. A Max Activity” value (CFTR; Table 6) was “+++ (+++ is >60%)”. The EC50 (CFTR; Table 6) was less than 1 µM.
For `Cc1cccc(C)c1-c1cc2nc(n1)NS(=O)(=O)c1cccc(c1)C(=O)N(Cc1ccccc1)CC(Cc1ccccc1)O2` (stereo in doubt) [Compound 106, (10R)-10,12-dibenzyl-6-(2,6-dimethylphenyl)-9-oxa-2λ^6-thia-3,5,12,19-tetraazatricyclo[12.3.1.14,8]nonadeca-1(17),4(19),5,7,14(18),15-hexaene-2,2,13-trione], the Emax (F508del; Table 6) was greater than 60%, the EC50 (F508del; Table 6) was less than 1 µM and the “Ent. A Max Activity” value (CFTR; Table 6) was “+++ (+++ is >60%)”. For the same molecule, the EC50 (CFTR; Table 6) was less than 1 µM.
`Cc1cccc(C)c1-c1cc2nc(n1)NS(=O)(=O)c1cccc(c1)CN(Cc1ccnnc1)[C@H](CC(C)C)CO2` [Compound 47, (11R)-6-(2,6-dimethylphenyl)-11-(2-methylpropyl)-12-[(pyridazin-4-yl)methyl]-9-oxa-2λ^6-thia-3,5,12,19-tetraazatricyclo[12.3.1.14,8]nonadeca-1(17),4,6,8(19),14(18),15-hexaene-2,2-dione] was tested, and the Emax (F508del; Table 7) was greater than 60%, the EC50 (F508del; Table 7) was less than 1 µM and the “Ent. A Max Activity” value (CFTR; Table 7) was “+++ (+++ is >60%)”. It also gave an EC50 (CFTR; Table 7) of less than 1 µM.
With `Cc1cccc(C)c1-c1cc2nc(n1)NS(=O)(=O)c1cccc(c1)C(=O)N(C)[C@H](CC(C)C)CO2` [Compound 71, (11R)-6-(2,6-Dimethylphenyl)-12-methyl-11-(2-methylpropyl)-9-oxa-2λ^6-thia-3,5,12,19-tetraazatricyclo[12.3.1.14,8]nonadeca-1(18),4(19),5,7,14,16-hexaene-2,2,13-trione] the Emax (F508del; Table 6) was greater than 60%, the EC50 (F508del; Table 6) was less than 1 µM and the “Ent. A Max Activity” value (CFTR; Table 6) was “+++ (+++ is >60%)”. For the same molecule, the EC50 (CFTR; Table 6) was less than 1 µM.
For `Cc1cccc(C)c1-c1cc2nc(n1)NS(=O)(=O)c1cccc(c1)C(=O)N(Cc1ccc(C#N)cc1)[C@H](CC(C)C)CO2` [Compound 78, 4-[[(11R)-6-(2,6-Dimethylphenyl)-11-isobutyl-2,2,13-trioxo-9-oxa-2λ^6-thia-3,5,12,19-tetrazatricyclo[12.3.1.14,8]nonadeca-1(18),4(19),5,7,14,16-hexaen-12-yl]methyl]benzonitrile], the Emax (F508del; Table 6) was greater than 60%, the EC50 (F508del; Table 6) was less than 1 µM and the “Ent. A Max Activity” value (CFTR; Table 6) was “+++ (+++ is >60%)”. For the same molecule, the EC50 (CFTR; Table 6) was less than 1 µM.
With `Cc1cccc(C)c1-c1cc2nc(n1)NS(=O)(=O)c1cccc(c1)C(=O)N(CCC1CCOCC1)[C@H](CC(C)C)CO2` [Compound 79, (11R)-6-(2,6-Dimethylphenyl)-11-isobutyl-2,2-dioxo-12-(2-tetrahydropyran-4-ylethyl)-9-oxa-2λ^6-thia-3,5,12,19-tetrazatricyclo[12.3.1.14,8]nonadeca-1(18),4(19),5,7,14,16-hexaen-13-one] the Emax (F508del; Table 6) was greater than 60%, the EC50 (F508del; Table 6) was less than 1 µM and the “Ent. A Max Activity” value (CFTR; Table 6) was “+++ (+++ is >60%)”. The EC50 (CFTR; Table 6) was less than 1 µM.
`Cc1cccc(C)c1-c1cc2nc(n1)NS(=O)(=O)c1cccc(c1)C(=O)N(CCO)[C@H](CC(C)C)CO2` [Compound 80, (11R)-6-(2,6-Dimethylphenyl)-12-(2-hydroxyethyl)-11-isobutyl-2,2-dioxo-9-oxa-2λ^6-thia-3,5,12,19-tetrazatricyclo[12.3.1.14,8]nonadeca-1(18),4(19),5,7,14,16-hexaen-13-one] was tested, and the Emax (F508del; Table 6) was greater than 60%, the EC50 (F508del; Table 6) was less than 1 µM and the “Ent. A Max Activity” value (CFTR; Table 6) was “+++ (+++ is >60%)”. For the same molecule, the EC50 (CFTR; Table 6) was less than 1 µM.
For `Cc1cccc(C)c1-c1cc2nc(n1)NS(=O)(=O)c1cccc(c1)C(=O)N(CCC1CCN(C(C)C)CC1)[C@H](CC(C)C)CO2` [Compound 85, (11R)-6-(2,6-Dimethylphenyl)-11-isobutyl-12-[2-(1-isopropyl-4-piperidyl)ethyl]-2,2-dioxo-9-oxa-2λ^6-thia-3,5,12,19-tetrazatricyclo[12.3.1.14,8]nonadeca-1(18),4(19),5,7,14,16-hexaen-13-one], the Emax (F508del; Table 7) was greater than 60%, the EC50 (F508del; Table 7) was less than 1 µM and the “Ent. A Max Activity” value (CFTR; Table 7) was “+++ (+++ is >60%)”. The EC50 (CFTR; Table 7) was less than 1 µM.
For `Cc1cccc(C)c1-c1cc2nc(n1)NS(=O)(=O)c1cccc(c1)C(=O)N(C)[C@H](C)[C@H](c1ccc(C(C)(C)C)cc1)O2` [Compound 338], the Emax (F508del; Table 6) was greater than 60%, the EC50 (F508del; Table 6) was less than 1 µM and the “Ent. A Max Activity” value (CFTR; Table 6) was “+ (+ is <30%)”.
In the case of `Cc1cccc(C)c1-c1cc2nc(n1)NS(=O)(=O)c1cccc(c1)C(=O)N(CCC(C)(C)C)C(C(F)(F)F)CO2` (centres unmarked) [Compound 373], the Emax (F508del; Table 7) is reported as greater than 60% and the EC50 (F508del; Table 7) is reported as 1 to 3 µM.
Molecule `Cc1cccc(C)c1-c1cc2nc(n1)NS(=O)(=O)c1cccc(c1)C(=O)N(C)C[C@@H](c1ccc(C3CC3)cc1)O2` [Compound 668] has an Emax (F508del; Table 7) greater than 60% and an EC50 (F508del; Table 7) of less than 1 µM.
